Assay results as given in US20260138949A1, “NOVEL COMPOUND AS PHOSPHOLIPASE D INHIBITOR AND USE THEREOF” (UIF (UNIVERSITY INDUSTRY FOUNDATION), YONSEI UNIVERSITY, priority 2022, published 2026).

These molecules were tested on phospholipase D1 (assay: PLD activity in HCT116 cells ([3H]phosphatidylbutanol, TLC)). Settings: compound 10 μM, cells without the compound = 100%.
Assay type: cell-based, human
Protocol: To evaluate the inhibitory effect of the compounds according to the present invention on phospholipase D1 activity, experiments were conducted as follows.
For the analysis of PLD activity in cells, human colon cancer cell line (HCT116) was cultured in a 6-well plate at 37° C. for 24 hours, washed twice with phosphate-buffered saline (PBS), and then replaced with medium containing [^3H]myristate and cultured for 24 hours. After the culture, the cells were washed three times with PBS, treated with 1-butanol, and the drug was added to a final concentration of 10 μM. The cells were trypsinized and suspended, and the amount of [^3H]phosphatidylbutanol produced in the cell suspension was measured and evaluated for PLD activity using thin layer chromatography (TLC), and the results are shown in Table 1 below.
The Remaining activity % at 10 μM in Table 1 is calculated by setting the amount of [^3H]phosphatidylbutanol produced in cells without the compound as 100% and calculating the amount of [^3H]phosphatidylbutanol produced in cells treated with the compound as a percentage. Therefore, the lower the value of Remaining activity %, the higher the PLD inhibitory activity.

| SMILES | Remaining activity % at 10 μM |
| --- | --- |
| O=C(CCc1c[nH]c2ccccc12)Nc1ccc(Br)cc1 [Example 1-65, N-(4-bromophenyl)-3-(1H-indol-3-yl)propanamide] | not active |
| O=C(Nc1cc(C(F)(F)F)cc(C(F)(F)F)c1)c1cc2cc(F)c(F)cc2[nH]1 [Example 1-113, N-(3,5-bis(trifluoromethyl)phenyl)-5,6-difluoro-1H-indole-2-carboxamide] | 42.48% |
| COc1ccc(CNC(=O)CCc2c[nH]c3ccccc23)cc1 [Example 1-71, 3-(1H-indol-3-yl)-N-(4-methoxybenzyl)propanamide] | 51.45% |
| COC(=O)c1ccc(NC(=O)Cc2c[nH]c3ccccc23)cc1 [Example 1-25, methyl 4-(2-(1H-indol-3-yl)acetamido)benzoate] | 66.73% |
| O=C(Cc1c[nH]c2ccccc12)Nc1cccc(O)c1 [Example 1-8, N-(3-hydroxyphenyl)-2-(1H-indol-3-yl)acetamide] | 65.7% |
| O=C(CCc1c[nH]c2ccccc12)Nc1ccc(Cl)c(Cl)c1 [Example 1-69, N-(3,4-dichlorophenyl)-3-(1H-indol-3-yl)propanamide] | not active |
| O=C(O)c1ccc2[nH]c(C(=O)Nc3cc(C(F)(F)F)cc(C(F)(F)F)c3)cc2c1 [Example 1-101, 2-((3,5-bis(trifluoromethyl)phenyl)carbamoyl)-1H-indole-5-carboxylic acid] | 57.61% |
| O=C(Cc1c[nH]c2ccccc12)NCc1cccnc1 [Example 1-57, 2-(1H-indol-3-yl)-N-(pyridin-3-ylmethyl)acetamide] | not active |
| O=C(Cc1c[nH]c2ccccc12)OCc1ccc([N+](=O)[O-])cc1 [Example 1-115, 4-nitrobenzyl 2-(1H-indol-3-yl)acetate] | 55.24% |
| O=C(Cc1c[nH]c2ccccc12)NCc1ccc([N+](=O)[O-])cc1 [Example 1-46, 2-(1H-indol-3-yl)-N-(4-nitrobenzyl)acetamide] | 57.41% |
| O=C(Cc1c[nH]c2ccccc12)Nc1ccc(Cl)c([N+](=O)[O-])c1 [Example 1-19, N-(4-chloro-3-nitrophenyl)-2-(1H-indol-3-yl)acetamide] | not active |
| COC(=O)c1ccc(CNC(=O)CCCc2c[nH]c3ccccc23)cc1 [Example 1-80, methyl 4-((4-(1H-indol-3-yl)butanamido)methyl)benzoate] | 56.02% |
| COc1ccc(CNC(=O)CCc2c[nH]c3ccccc23)cc1OC [Example 1-73, N-(3,4-dimethoxybenzyl)-3-(1H-indol-3-yl)propanamide] | 95.81% |
| O=C(Cc1c[nH]c2ccccc12)Nc1ccc(O)c(O)c1 [Example 1-106, N-(3,4-dihydroxyphenyl)-2-(1H-indol-3-yl)acetamide] | 62.00% |
| O=C(Nc1ccc(Br)cc1)c1c[nH]c2ccccc12 [Example 1-2, N-(4-bromophenyl)-1H-indole-3-carboxamide] | 85.52% |
| O=C(Nc1ccccc1F)c1cc2cc(F)ccc2[nH]1 [Example 1-97, 5-fluoro-N-(2-fluorophenyl)-1H-indole-2-carboxamide] | not active |
| O=C(Nc1cccc(C(F)(F)F)c1)c1cc2cc(F)ccc2[nH]1 [Example 1-95, 5-fluoro-N-(3-(trifluoromethyl)phenyl)-1H-indole-2-carboxamide] | 52.08% |
| O=C(Cc1c[nH]c2ccccc12)NCc1cccc(F)c1 [Example 1-36, N-(3-fluorobenzyl)-2-(1H-indol-3-yl)acetamide] | 76.23% |
| COc1ccc(CNC(=O)CCCc2c[nH]c3ccccc23)cc1 [Example 1-81, 4-(1H-indol-3-yl)-N-(4-methoxybenzyl)butanamide] | 59.84% |
| O=C(Cc1c[nH]c2ccccc12)Nc1ccc(F)cn1 [Example 1-22, N-(5-fluoropyridin-2-yl)-2-(1H-indol-3-yl)acetamide] | 66.5% |
| Cc1cc(C)cc(NC(=O)c2cc3cc(F)ccc3[nH]2)c1 [Example 1-103, N-(3,5-dimethylphenyl)-5-fluoro-1H-indole-2-carboxamide] | 75.43% |
| O=C(Cc1c[nH]c2ccccc12)NNc1ccc(Br)cc1 [Example 1-55, N′-(4-bromophenyl)-2-(1H-indol-3-yl)acetohydrazide] | 77.89% |
| O=C(Nc1cc(C(F)(F)F)cc(C(F)(F)F)c1)c1cc2cc(C(F)(F)F)ccc2[nH]1 [Example 1-102, N-(3,5-bis(trifluoromethyl)phenyl)-5-(trifluoromethyl)-1H-indole-2-carboxamide] | 35.11% |

| SMILES | Remaining activity % at 10 μM |
| --- | --- |
| O=C(Nc1cc(F)cc(F)c1)c1cc2cc(F)ccc2[nH]1 [Example 1-92, N-(3,5-difluorophenyl)-5-fluoro-1H-indole-2-carboxamide] | 56.88% |
| O=C(Cc1c[nH]c2ccccc12)NCCc1ccccc1 [Example 1-59, 2-(1H-indol-3-yl)-N-phenethylacetamide] | not active |
| COC(=O)c1ccc(CNC(=O)c2cc3ccccc3[nH]2)cc1 [Example 1-88, methyl 4-((1H-indole-2-carboxamido)methyl)benzoate] | 37.79% |
| O=C(Cc1c[nH]c2ccccc12)Nc1ccc(Br)cn1 [Example 1-21, N-(5-bromopyridin-2-yl)-2-(1H-indol-3-yl)acetamide] | 46.59% |
| COc1ccc(NC(=O)CCc2c[nH]c3ccccc23)cc1OC [Example 1-70, N-(3,4-dimethoxyphenyl)-3-(1H-indol-3-yl)propanamide] | not active |
| O=C(Cc1c[nH]c2ccccc12)Nc1ccccc1Br [Example 1-15, N-(2-bromophenyl)-2-(1H-indol-3-yl)acetamide] | 30.42% |
| O=C(Cc1c[nH]c2ccccc12)NNc1ccccc1Cl [Example 1-51, N′-(2-chlorophenyl)-2-(1H-indol-3-yl)acetohydrazide] | 82.82% |
| Cc1cc(C)cc(NC(=O)c2cc3ccccc3[nH]2)c1 [Example 1-104, N-(3,5-dimethylphenyl)-1H-indole-2-carboxamide] | 66.73% |
| O=C(CCCc1c[nH]c2ccccc12)Nc1cccc(F)c1 [Example 1-74, N-(3-fluorophenyl)-4-(1H-indol-3-yl)butanamide] | 72.65% |
| O=C(Cc1c[nH]c2ccccc12)NCc1cccc(Cl)c1Cl [Example 1-47, N-(2,3-dichlorobenzyl)-2-(1H-indol-3-yl)acetamide] | 62.96% |
| O=C(CCc1c[nH]c2ccccc12)Nc1ccccc1F [Example 1-61, N-(2-fluorophenyl)-3-(1H-indol-3-yl)propanamide] | 45.47% |
| O=C(CCc1c[nH]c2ccccc12)Nc1cccc(F)c1 [Example 1-62, N-(3-fluorophenyl)-3-(1H-indol-3-yl)propanamide] | 49.36% |
| CC(C)(C)c1ccc(NC(=O)Cc2c[nH]c3ccccc23)cc1 [Example 1-27, N-(4-tert-butylphenyl)-2-(1H-indol-3-yl)acetamide] | 81.22% |
| O=C(Oc1cc(C(F)(F)F)cc(C(F)(F)F)c1)c1cc2cc(F)ccc2[nH]1 [Example 1-118, 3,5-bis(trifluoromethyl)phenyl 5-fluoro-1H-indole-2-carboxylate] | 49.17% |
| O=C(Cc1c[nH]c2ccccc12)NNc1ccc(Cl)cc1 [Example 1-53, N′-(4-chlorophenyl)-2-(1H-indol-3-yl)acetohydrazide] | not active |
| O=C(Cc1c[nH]c2ccccc12)NCCc1ccc(Br)cc1 [Example 1-60, N-(4-bromophenethyl)-2-(1H-indol-3-yl)acetamide] | 82.15% |
| O=C(Nc1cc(O)cc(O)c1)c1cc2cc(F)ccc2[nH]1 [Example 1-112, N-(3,5-dihydroxyphenyl)-5-fluoro-1H-indole-2-carboxamide] | not active |
| COc1cc(NC(=O)c2cc3cc(F)ccc3[nH]2)cc(OC)c1 [Example 1-96, N-(3,5-dimethoxyphenyl)-5-fluoro-1H-indole-2-carboxamide] | 98.38% |
| O=C(CCc1c[nH]c2ccccc12)Nc1cc(F)cc(F)c1 [Example 1-66, N-(3,5-difluorophenyl)-3-(1H-indol-3-yl)propanamide] | 84.92% |
| O=C(CCCc1c[nH]c2ccccc12)Nc1ccc(Cl)c([N+](=O)[O-])c1 [Example 1-78, N-(4-chloro-3-nitrophenyl)-4-(1H-indol-3-yl)butanamide] | 42.24% |
| O=C(Cc1c[nH]c2ccccc12)NCc1ccccc1F [Example 1-35, N-(2-fluorobenzyl)-2-(1H-indol-3-yl)acetamide] | 83.61% |
| O=C(Cc1c[nH]c2ccccc12)Nc1ccccc1O [Example 1-7, N-(2-hydroxyphenyl)-2-(1H-indol-3-yl)acetamide] | 65.03% |
| CC(C)(C)c1ccc(CNC(=O)Cc2c[nH]c3ccccc23)cc1 [Example 1-41, N-(4-tert-butylbenzyl)-2-(1H-indol-3-yl)acetamide] | 59.99% |

Same assay, conditions: compound 10 μM, cells without the compound = 100%, 10 µM

| SMILES | Remaining activity % at 10 μM |
| --- | --- |
| O=C(NNc1ccc(Cl)c(Cl)c1)c1cc2ccccc2[nH]1 [Example 1-89, N′-(3,4-dichlorophenyl)-1H-indole-2-carbohydrazide] | 83.22% |
